The values below come from publication doi:10.1101/2023.11.09.566481v1 (biorxiv, 2023).

Each structure is given as a SMILES string. Like-named read-outs stand apart in the source and are kept apart here.

Assay [1] addresses T1, hSirt3^102-399 (Homo sapiens, UniProt Q9NTG7).
T1 sequence (Q9NTG7 102-399): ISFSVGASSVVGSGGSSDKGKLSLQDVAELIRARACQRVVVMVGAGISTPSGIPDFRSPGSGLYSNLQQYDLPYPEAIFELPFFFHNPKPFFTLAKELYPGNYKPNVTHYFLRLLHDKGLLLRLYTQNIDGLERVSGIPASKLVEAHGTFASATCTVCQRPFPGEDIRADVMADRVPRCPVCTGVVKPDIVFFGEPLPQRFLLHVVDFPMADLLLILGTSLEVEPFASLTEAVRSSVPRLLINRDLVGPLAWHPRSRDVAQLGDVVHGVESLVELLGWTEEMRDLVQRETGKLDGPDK
Kind of assay: biochemical. The settings on record: read-out: % Control Non-Steady state.

Assay [2] deals with T1, hSirt3^102-399. The experiment in a line: biochemical. Conditions: read-out: % Control Steady-state.

As to `C=CCc1ccc(O)c(-c2ccc(O)c(CC=C)c2)c1` [Honokiol], the remaining activity at 10 µM in assay [1] turned out to be 110%; in assay [2], 85.9%.
